In patent US20250164476A1, “COLORIMETRIC ASSAY USING DITHIOLATE-GRAFTED NANOPARTICLES FOR HIGH-THROUGHPUT SCREENING OF CRYOPROTECTANTS” (The Government of the United States of America, as …, priority 2023, published 2025):

Legend:
[1] = Ligand effect on the freezing of AuNP (96-well serial dilution); conditions: for appearance of AuNP samples in presence of test ligand: before freezing, 10 nM AuNP in 1×PBS (FIG. 5A); for type of AuNP aggregation on freezing: conclusion from frozen and post-thaw states; for colloidal color of AuNP in frozen state: frozen at −20° C. for 2 hours, serial dilution, ligands from 1 mM, sucrose 40% (FIG. 5B); for colloidal color / optical properties of AuNP at post-thaw state: thawed at room temperature for 30 minutes (FIG. 5C)
Description: In a sample well plate series (96 wells), a 2 millimolar (mM) stock solution of the test ligands was mixed with AuNP, resulting in a 1 mM AuNP-probe solution which was deposited as a highest concentration in respective top wells (using two columns or lanes of wells for each ligand), and was serially diluted by half using 2×PBS buffer for every following well. More specifically, the stock ligand concentration, 1 mM, was diluted by ½, ¼, ⅛, 1/16, 1/32, 1/64, 1/128, and 1/256 times (from top to bottom) by using 2×PBS. After finishing serial dilution of the target materials (four ligands, here), 50 microliters (μL) of 20 nM AuNP were added to each well of the well plate series to make a 10 nM AuNP-probe in 1×PBS in each well as a final concentration. […] See the resulting sample well plate series in FIG. 5A.
FIG. 5B is an image of the 96 well plate series of FIG. 5A after freezing. Specifically, the 96 well plate series was frozen at −20° C. for 2 hours, resulting in the frozen state of the samples depicted in FIG. 5B.
FIG. 5C is an image of the 96 well plate series of FIG. 5B after thawing. More specifically, the 96 well plate series of FIG. 5B was thawed at room temperature for 30 minutes, resulting the post-thaw state of FIG. 5C.

[2] = AuNP-TA/NTA probe colorimetric HTS titration assay for anti-icing activity; conditions: FIG. 8C; 0.2 mg/ml serially diluted, 1×PBS, frozen at −20° C. for 2 hours, thawed
Description: FIG. 6A is an image of a 96 well plate series titration test, utilizing an AuNP-TA/NTA probe in different test solutions at room temperature. From top to bottom there are six different testing targets: (1) AFP 0.3 mg/ml, (2) polyvinyl alcohol (PVA) 10K 0.3%, (3) bovine serum albumin (BSA) 0.3 mg/ml, (4) ethylene glycol (EG) 50%, (5) glycerol (Gly) 50%, and (6) 80 mg/ml zirconium acetate (ZrA). The buffer was 1×PBS except for the last sample ZrA, which was in 40 mM HCl (because ZrA is only active in acidic conditions). The target samples were diluted in rows by ½, ¼, ⅛, 1/16, 1/32, 1/64, 1/128, 1/256, 1/512, 1/1024, 1/2048 and 1/4096 times (from left to right) using 2×PBS or 80 mM HCl (for ZrA). Next, 50 μL of target materials were mixed with 50 μL of 20 nM AuNP-probe to make a final 1×PBS, or 40 mM HCl for the last sample, and 10 nM of AuNP probe in each well. […]
In general, titration is a common laboratory method for quantitative chemical analysis to determine the concentration of an identified analyte in terms of activity. […] Thus, it is necessary to obtain a quantified value or parameter in order to compare different test results in different conditions. […]

[3] = sucrose-based sandwich assay
Description: More specifically, FIGS. 10A-10F show respective anti-icing samples tested including: sucrose 40% (as a negative control), AFP (RiAFP) 0.12 mg/ml, BSA 0.12 mg/ml, 10K PVA 0.12 mg/ml, 10K PVA 1 mg/ml, and zirconium acetate (ZrN) 40 mg/ml. The buffer utilized was 0.5×PBS, with the exception of ZrN which was in 80 mM HCl. For the IRI assay, each sample was prepared with 40% sucrose as a final concentration. The following procedures were performed for each sample. Initially, 2 μL of sample was dropped between two round coverslips (borosilicate, d=1.3˜1.5 cm) and sealed with grease. The sample was then inserted into a Linkam® Scientific cryostage with liquid nitrogen (LN2) control. The sample was first frozen at −50° C. for 1 min, then the temperature was increased to −20° C. at a rate of 10° C./min, followed by a slow increase in temperature to −10° C. at a speed of 1° C./min. A sample image was then taken after annealed at −10° C. for 30 minutes without interruption.

Row | Compound | appearance of AuNP samples in presence of test ligand [1] | type of AuNP aggregation on freezing [1] | colloidal color of AuNP in frozen state [1] | colloidal color / optical properties of AuNP at post-thaw state [1] | anti-icing effects from concentration-dependent color changes [2] | anti-icing effect in traditional IRI test [3]
1 | O=C(O)CCCCC1CCSS1 (stereo not shown) [TA, thioctic acid] | well-dispersed without any color changes | irreversible aggregation | turned translucent at the highest concentrations | remained pale at the highest concentration | – | –
2 | OC[C@H]1O[C@@](CO)(O[C@H]2O[C@H](CO)[C@@H](O)[C@H](O)[C@H]2O)[C@@H](O)[C@@H]1O [sucrose] | well-dispersed without any color changes | – | changed from the original red (top well, at the highest concentration) to purple, and finally to pale purple | – | – | –
3 | bovine serum albumin [BSA] | – | – | – | – | low-level anti-icing effects | confirmed
4 | nitrilotriacetic acid modified thioctic acid [TA-NTA] | well-dispersed without any color changes | reversible aggregation | turned translucent at the highest concentrations | almost fully recovered their intrinsic optical properties | – | –
5 | sulfonate modified thioctic acid [TA-SO3] | well-dispersed without any color changes | reversible aggregation | red at the highest concentration without any aggregation | almost fully recovered their intrinsic optical properties | – | –
